{"source": "patent US7235534B2", "about": "“Antisense strategy to modulate estrogen receptor response (ER α and/or ER β )” (Institut de Cardiologie de Montreal, priority 2001, dated 2007)", "key": {"[1]": {"system": "Porcine smooth muscle cells (PSMC)", "test": "Mitogenic assay on PSMC (cell count)", "assay_type": "cell-based", "details": "for inhibition of PSMC proliferation mediated by FBS: 17βE 10^−7M, 72 h", "procedure": "(§1) Confluent PAEC and PSMC were rinsed with DMEM and trypsinized. Cells were resuspended in 10 ml of DMEM, 5% FBS, and antibiotics, and a cell count was obtained with a Coulter Counter Z1 (Coulter Electronics, Luton, UK). PAEC and PSMC were seeded at 1×10^4 cells/well of 24-well tissue culture plates (Becton-Dickinson, Rutherford, N.J., U.S.A.) stimulated for 24 h in DMEM, 5% FBS, and antibiotics, and starved for 48 h in DMEM, 0.1% FBS, and antibiotics. […] After trypsinization, cell number was determined by using a Coulter counter.\n(§2) Confluent PAEC and PSMC were rinsed with DMEM and trypsinized. Cells were resuspended in 10 mL of DMEM, 5% FBS, and antibiotics, and a cell count was obtained. PAEC and PSMC were initially seeded at 1×10^4cells/well of 24-well tissue culture plates stimulated for 24 hours in DMEM, 5% FBS, and antibiotics with or without antisense oligomers (10^−6 mol/L), and starved for 48 hours in DMEM, 0.1% FBS, and antibiotics with or without antisense oligomers (10^−6 mol/L daily) for G0 synchronization. Initial cell number for growth was determined using a Coulter counter. The cells were stimulated for 72 hours in DMEM, 1% FBS, antibiotics with or without antisense oligomers (10^−6 mol/L daily) and with or without of 17βE (Sigma). After trypsinization, cell number was determined by using a Coulter counter."}, "[2]": {"system": "Porcine aortic endothelial cells (PAEC)", "test": "Mitogenic assay on PAEC (cell count)", "assay_type": "cell-based", "details": "for inhibition of the 17βE mitogenic activity in PAEC: antagonist 10^−7M pretreatment", "procedure": "as §1, §2"}, "p42/44 MAPK": {"system": "p42/44 MAPK", "test": "Western blot of p42/44 MAPK phosphorylation in PAEC", "assay_type": "cell-based, porcine", "details": "for decrease of p42/44 MAPK phosphorylation induced by 5 min stimulation of 17βE: antagonist 10^−7M 5 min prior to 17βE 10^−8M", "procedure": "Confluent PAEC and PSMC were starved for 7 hours in DMEM and antibiotics. Culture medium was removed, and cells were rinsed twice with ice-cold DMEM. PSMC were incubated on ice in DMEM with or without 17βE (10^−8M) for 30 min, incubated at 37° C. for 5, 10, 15 and 30 min, then brought back on ice. Cell were then rinsed with cold DMEM, incubated on ice in DMEM, bovine serum albumin (1 mg/ml), PDGF-BB (10 ng/ml) for 30 min, incubated at 37° C. for 5 min, and then brought back on ice. […] […] Total proteins were prepared by the addition of 500 μl of lysis buffer containing phenylmethylsulfonyl fluoride 1 mM, leupeptin 10 μg/ml, aprotinin 30 μg/ml, and NaVO3 1 mM (Sigma). Plates were incubated at 4° C. for 30 min and scraped, and the protein concentration was determined with a Bio-Rad protein kit (Bio-Rad, Hercules, Calif.). Same protein quantity for each cell type and condition were dissolved in Laemmli's buffer, boiled for 5 min in reducing conditions, separated by a 10% gradient SDS-PAGE (Protean II kit; Bio-Rad), and transblotted onto a 0.45-μm polyvinylidene difluoride membranes (Millipore Corp., Bedford, Mass.). The membranes were blocked in 5% Blotto-TTBS (5% nonfat dry milk; Bio-Rad), 0.05% Tween 20, 0.15 M NaCl, 25 mM Tris-HCl, pH 7.5) for 1 h at room temperature with gentle agitation and incubated overnight at 4° C. in 0.5% Blotto-TTBS with the addition of an anti-phospho p42/44 MAPK or an anti-phospho p38 MAPK rabbit polyclonal antiserums (α-pp42/44; dilution of 1:10 000, and α-pp38; dilution 1:5000, New England BioLabs, Beverly, Mass.). Membranes were washed with TTBS, and incubated at room temperature with an anti-rabbit IgG antibody coupled to horseradish peroxidase (dilution 1:10 000–1:20 000, Santa Cruz Biotechnology, Santa Cruz, Calif.) in 0.5% Blotto-TTBS for 30 min. […] Kaleidoscope molecular weight and SDS-plyacrylamide gel electrophoresis broad range marker proteins (Bio-Rad) were used as standards for SDS-plyacrylamide gel electrophoresis. Digital image densitometry (PDI Bioscience, Aurora, ON) was performed on x-ray film to determine relative percentages of p42/44 and p38 MAPK phosphorylation.\nConfluent PAEC and PSMC were preteated with or without antisense sequences as described above for Western Blot analysis. Cells were rinsed twice with ice-cold DMEM. PSMC and PAEC were stimulated with or without 17βE (10^−8 mol/L) as previously described (Geraldes P). Briefly, PSMC were incubated on ice in DMEM with or without 17βE (10^−8 mol/L) for 30 minutes, incubated at 37° C. for 30 minutes, then brought back on ice. Cells were then rinsed with cold DMEM, incubated on ice in DMEM, bovine serum albumin (1 mg/mL), PDGF-BB (10 ng/mL) for 30 minutes, incubated at 37° C. for 5 and 30 minutes, and then brought back on ice. PAEC were incubated on ice in DMEM with or without 17βE (10^−8 mol/L) for 30 minutes, then incubated at 37° C. for 5 and 30 minutes and brought back on ice. Total proteins were prepared-by the addition of 500 μL of lysis buffer, incubated at 4° C. for 30 minutes and scraped to collect the proteins. Same quantity of protein was separated by a 10% gradient SDS-PAGE (Protean II kit; Bio-Rad), and transblotted onto a 0.45-μm polyvinylidene difluoride membranes (Millipore Corp.). The membranes were blocked for 1 hour at room temperature with gentle agitation and incubated overnight at 4° C. in 0.5% Blotto-TTBS with the addition of an antiphospho p42/44 MAPK or an antiphospho p38 MAPK rabbit polyclonal antiserums (α-pp42/44; dilution of 1:10000, and α-pp38; dilution 1:5 000, New England BioLabs, Beverly, Mass.). Membranes were washed with TTBS, and incubated at room temperature with an anti-rabbit IgG antibody coupled to horseradish peroxidase (dilution 1:10 000–1:20 000, Santa Cruz Biotechnology) in 0.5% Blotto-TTBS for 30 minutes. […] Digital image densitometry (PDI Bioscience) was performed on X-ray film to determine relative phosphorylation of p42/44 and p38 MAPK. […]"}}, "data": [{"smiles": "CC/C(=C(\\c1ccc(O)cc1)c1ccc(OCCN(C)C)cc1)c1ccccc1", "note": "[4-OHT, 4-OH-Tamoxifen]", "values": [{"measurement": "reversal of the anti-mitogenic activity of 17βE on PSMC", "setting": "[1]; 4-OHT 10^−8M and 10^−7M, 17βE 10^−8M, FBS 1%", "value": 81, "unit": "%"}, {"measurement": "inhibition of the 17βE mitogenic activity in PAEC", "setting": "[2]; 17βE 10^−8M", "value": "inhibited completely"}, {"measurement": "decrease of p42/44 MAPK phosphorylation induced by 5 min stimulation of 17βE", "setting": "p42/44 MAPK", "value": 44, "unit": "%"}]}, {"smiles": "C[C@]12CC[C@@H]3c4ccc(O)cc4CC[C@H]3[C@@H]1CC[C@@H]2O", "note": "[17βE, 17-beta-estradiol]", "values": [{"measurement": "inhibition of PSMC proliferation mediated by FBS", "setting": "[1]; FBS 1%", "value": 88, "unit": "%"}, {"measurement": "inhibition of PSMC proliferation mediated by FBS", "setting": "[1]; FBS 5%", "value": 90, "unit": "%"}, {"measurement": "inhibition of FBS 1% mitogenic activity on PSMC", "setting": "[1]; 17βE 10^−8M, Example 1", "value": "inhibited completely"}, {"measurement": "prevention of PSMC proliferation mediated by FBS 1%", "setting": "[1]; 17βE 10^−8 mol/L, Example 2", "value": 95, "unit": "%"}, {"measurement": "induction of PAEC proliferation over FBS 1% treatment", "setting": "[2]; 17βE 10^−8M, 72 h, Example 1", "value": 37, "unit": "%"}, {"measurement": "induction of PAEC proliferation over FBS 1% treatment", "setting": "[2]; 17βE 10^−8 mol/L, Example 2", "value": 123, "unit": "%"}, {"measurement": "concentration of maximum induction of PAEC proliferation", "setting": "[2]; 17βE 10^−10 to 10^−7M, DMEM 1% FBS, data not shown", "value": "10^−8 M"}, {"measurement": "increase of p42/44 MAPK phosphorylation", "setting": "p42/44 MAPK; 17βE 10^−8M, 5 minutes, Example 1", "value": 1122, "unit": "%"}, {"measurement": "increase of p42/44 MAPK phosphorylation", "setting": "p42/44 MAPK; 17βE 10^−8M, 10 minutes", "value": 1074, "unit": "%"}, {"measurement": "increase of p42/44 MAPK phosphorylation", "setting": "p42/44 MAPK; 17βE 10^−8M, 15 minutes", "value": 1420, "unit": "%"}, {"measurement": "increase of p42/44 MAPK phosphorylation", "setting": "p42/44 MAPK; 17βE 10^−8M, 30 minutes", "value": 1835, "unit": "%"}, {"measurement": "increase of p42/44 MAPK phosphorylation", "setting": "p42/44 MAPK; 17βE 10^−8 mol/L, 5 minutes, Example 2", "value": 329, "unit": "%"}]}, {"smiles": "O=C(c1ccc(OCN2CCCCC2)cc1)c1c(-c2ccc(O)cc2)sc2cc(O)ccc12", "note": "[Ral, Raloxifen]", "values": [{"measurement": "reversal of the anti-mitogenic activity of 17βE on PSMC", "setting": "[1]; Rai 10^−1M as printed, 17βE 10^−8M, FBS 1%", "value": 100, "unit": "%"}, {"measurement": "inhibition of the 17βE mitogenic activity in PAEC", "setting": "[2]; 17βE 10^−8M", "value": "inhibited completely"}, {"measurement": "decrease of p42/44 MAPK phosphorylation induced by 5 min stimulation of 17βE", "setting": "p42/44 MAPK", "value": 66, "unit": "%"}]}, {"smiles": "CC/C(=C(\\c1ccccc1)c1ccc(OCCN(C)C)cc1)c1ccccc1", "note": "[Tam, Tamoxifen]", "values": [{"measurement": "reversal of the anti-mitogenic activity of 17βE on PSMC", "setting": "[1]; Tam 10^−7M, 17βE 10^−8M, FBS 1%", "value": 75, "unit": "%"}, {"measurement": "inhibition of the 17βE mitogenic activity in PAEC", "setting": "[2]; 17βE 10^−8M", "value": "inhibited completely"}, {"measurement": "decrease of p42/44 MAPK phosphorylation induced by 5 min stimulation of 17βE", "setting": "p42/44 MAPK", "value": 36, "unit": "%"}]}]}
